Here are results for 21 compounds from patent publication US20190330226A1, “POSITIVE ALLOSTERIC MODULATORS OF THE MUSCARINIC ACETYLCHOLINE RECEPTOR M1” (Vanderbilt University, priority 2018, published 2019).

Each structure is given as a SMILES string.

The target in this test is T1, human mAChR M1 (Homo sapiens, UniProt P11229).
T1 construct: host or cells: CHO-K1 (ATCC), stably transfected using Lipofectamine 2000
T1 sequence (P11229 1-460): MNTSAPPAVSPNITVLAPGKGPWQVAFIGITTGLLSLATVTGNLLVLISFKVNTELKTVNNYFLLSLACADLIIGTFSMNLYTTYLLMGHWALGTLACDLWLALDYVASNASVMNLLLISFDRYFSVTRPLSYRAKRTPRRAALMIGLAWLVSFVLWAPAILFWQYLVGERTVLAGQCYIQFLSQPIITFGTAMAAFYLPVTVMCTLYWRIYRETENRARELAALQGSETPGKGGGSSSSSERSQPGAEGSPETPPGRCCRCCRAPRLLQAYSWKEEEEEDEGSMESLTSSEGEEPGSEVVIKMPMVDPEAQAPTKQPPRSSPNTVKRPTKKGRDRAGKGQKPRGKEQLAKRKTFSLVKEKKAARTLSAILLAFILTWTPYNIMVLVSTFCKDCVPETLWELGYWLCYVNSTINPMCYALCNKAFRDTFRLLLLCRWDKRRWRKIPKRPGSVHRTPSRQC
Briefly: mAChR M1 cell-based functional assay (calcium mobilization, Fluo-4, FDSS). As to conditions: CHO-K1 cells stably expressing hM1, calcium flux; for Emax: PAM mode with EC20 acetylcholine; for EC50: concentration-dependent increase in the EC20 acetylcholine response. The source says:
Chinese hamster ovary (CHO-K1) cells stably expressing rat (r)M1 were purchased from the American Type Culture Collection and cultured according to their indicated protocol. CHO cells stably expressing human (h)M2, hM3, and hM5 were described previously (Levey, et al., 1991); hM1 and hM4 cDNAs were purchased from Missouri S&T cDNA Resource; rM4 cDNA was provided by T. I. Bonner (National Institutes of Health, Bethesda, Md.). rM2 and rM3 were cloned from a rat brain cDNA library and sequence verified. hM1, rM2, rM3, hM4, and rM4 cDNAs were used to stably transfect CHO-K1 cells purchased from the American Type Culture Collection using Lipofectamine 2000. To make stable rM2, hM2, rM3, hM4, and rM4 cell lines for use in calcium mobilization assays, these cells also were stably transfected with a chimeric G-protein (Gqi5) (provided by B. R. Conklin, University of California, San Francisco) using Lipofectamine 2000. rM1, hM1, rM3, hM3, rM5, and hM5 cells were grown in Ham's F-12 medium containing 10% heat-inactivated fetal bovine serum (FBS), 20 mM HEPES, and 50 µg/mL G418 sulfate. rM2-Gqi5, hM2-Gqi5, and hM4-Gqi5 cells were grown in the same medium also containing 500 μg/mL Hygromycin B. Stable rM4-Gqi5 cells were grown in DMEM containing 10% heat-inactivated FBS, 20 mM HEPES, 400 μg/mL G418 sulfate, and 500 μg/mL Hygromycin B.
For high throughput measurement of agonist-evoked increases in intracellular calcium, CHO-K1 cells stably expressing muscarinic receptors were plated in growth medium lacking G418 and hygromycin at 15,000 cells/20 μL/well in Greiner 384-well black-walled, tissue culture (TC)-treated, clear-bottom plates (VWR). Cells were incubated overnight at 37° C. and 5% CO2. The next day, cells were washed using an ELX 405 (BioTek) with four washes ([…]) of assay buffer then aspirated to 20 μL. Next, 20 μL of 16 μM Fluo-4/acetoxymethyl ester (Invitrogen, Carlsbad, Calif.) prepared as a 2.3 mM stock in DMSO and mixed in a 1:1 ratio with 10% (w/v) Pluronic F-127 and diluted in assay buffer was added to the wells and the cell plates were incubated for 50 min at 37° C. and 5% CO2. Dye was removed by washing with the ELX 405 (four 80 μL washes of assay buffer) then aspirated to 20 μL. Compound master plates were formatted in an 11 point CRC format (1:3 dilutions) in 100% DMSO with a starting concentration of 10 mM using the BRAVO liquid handler (Agilent). Test compound CRCs were then transferred to daughter plates (240 nL) using the Echo acoustic plate reformatter (Labcyte, Sunnyvale, Calif.) and then diluted into assay buffer (40 μL) to a 2× stock using a Thermo Fisher Combi (Thermo Fisher Scientific, Waltham, Mass.).
Calcium flux was measured using the Functional Drug Screening System (FDSS) 6000 (Hamamatsu Corporation, Tokyo, Japan) as an increase in the fluorescent static ratio. Compounds were applied to cells (20 μL, 2×) using the automated system of the FDSS 6000 at 4 s into the 300 s protocol and the data were collected at 1 Hz. At 144 s into the 300s protocol, 10 μL of an EC20 concentration of the muscarinic receptor agonist acetylcholine was added (5×), followed by the addition of 12 μL an EC80 concentration of acetylcholine at the 230 s time point (5×). Agonist activity was analyzed as a concentration-dependent increase in calcium mobilization upon compound addition. Positive allosteric modulator activity was analyzed as a concentration-dependent increase in the EC20 acetylcholine response. Antagonist activity was analyzed as a concentration-dependent decrease in the EC80 acetylcholine response. Concentration-response curves were generated using a four-parameter logistical equation in XLfit curve fitting software (IDBS, Bridgewater, N.J.) for Excel (Microsoft, Redmond, Wash.) or Prism (GraphPad Software, Inc., San Diego, Calif.).
Activity (EC50 and Emax) was determined in the mAChR M1 cell-based functional assay as described above and the data are shown in Table 2. […]

For `Cn1cc(-c2ccc(CN3Cc4ccsc4C3=O)c(F)c2)cn1` [Compound 32, 5-(2-fluoro-4-(1-methyl-1H-pyrazol-4-yl)benzyl)-4,5-dihydro-6H-thieno[2,3-c]pyrrol-6-one], the Emax was determined as 67% and the EC50 stood at 4.9 µM.

With `Cn1cnc2ccc(-c3cc(F)c(CN4Cc5sccc5C4=O)c(F)c3)cc21` [Compound 27, 5-(2,6-difluoro-4-(1-methyl-1H-benzo[d]imidazol-6-yl)benzyl)-5,6-dihydro-4H-thieno[2,3-c]pyrrol-4-one], the Emax was 60% and the EC50 was determined as 2.87 µM.

As for `Cc1cc(-c2cc(F)c(CN3Cc4cnn(CC5CCCO5)c4C3=O)c(F)c2)ccn1` (stereo not shown) [Compound 39, 5-(2,6-difluoro-4-(2-methylpyridin-4-yl)benzyl)-1-((tetrahydrofuran-2-yl)methyl)-4,5-dihydropyrrolo[3,4-c]pyrazol-6(1H)-one], the Emax came to 65% and the EC50 turned out to be 3.58 µM.

`Cn1cc2c(-c3cc(F)c(CN4Cc5cnn(CCO)c5C4=O)c(F)c3)cccc2n1` [Compound 24, 5-(2,6-difluoro-4-(2-methyl-2H-indazol-4-yl)benzyl)-1-(2-hydroxyethyl)-4,5-dihydropyrrolo[3,4-c]pyrazol-6(1H)-one]: the Emax stood at 80% and the EC50 was 0.91 µM.

As to `O=C1c2scnc2CN1Cc1c(F)cc(-c2ccc3nccn3c2)cc1F` [Compound 15, 5-(2,6-difluoro-4-(imidazo[1,2-a]pyridin-6-yl)benzyl)-4,5-dihydro-6H-pyrrolo[3,4-d]thiazol-6-one], the Emax was found to be 55%.

With `O=C1c2ccsc2CN1Cc1c(F)cc(-c2ccc3nccn3c2)cc1F` [Compound 30, 5-(2,6-difluoro-4-(imidazo[1,2-a]pyridin-6-yl)benzyl)-5,6-dihydro-4H-thieno[2,3-c]pyrrol-4-one], the Emax came out at 30% and the EC50 amounted to 0.5 µM.

On to `Cn1cc2c(-c3cc(F)c(CN4Cc5cnn(CC6CCCO6)c5C4=O)c(F)c3)cccc2n1` (stereo not shown) [Compound 16, 5-(2,6-difluoro-4-(2-methyl-2H-indazol-4-yl)benzyl)-1-((tetrahydrofuran-2-yl)methyl)-4,5-dihydropyrrolo[3,4-c]pyrazol-6(1H)-one], for which the Emax turned out to be 93% and the EC50 is 0.92 µM.

With `Cn1cc(-c2cc(F)c(CN3Cc4ncsc4C3=O)c(F)c2)cn1` [Compound 14, 5-(2,6-difluoro-4-(1-methyl-1H-pyrazol-4-yl)benzyl)-4,5-dihydro-6H-pyrrolo[3,4-d]thiazol-6-one], the maximal response (Emax) was 40%.

`Cn1cc2cccc(-c3cc(F)c(CN4Cc5cnn(CC6CCCO6)c5C4=O)c(F)c3)c2n1` (stereo not shown) [Compound 38, 5-(2,6-difluoro-4-(2-methyl-2H-indazol-7-yl)benzyl)-1-((tetrahydrofuran-2-yl)methyl)-4,5-dihydropyrrolo[3,4-c]pyrazol-6(1H)-one]: the Emax came to 66% and the EC50 was 6.89 µM.

For `Cc1nn(C)cc1-c1ccc(CN2Cc3sccc3C2=O)c(F)c1` [Compound 43, 5-(4-(1,3-dimethyl-1H-pyrazol-4-yl)-2-fluorobenzyl)-5,6-dihydro-4H-thieno[2,3-c]pyrrol-4-one], the Emax worked out at 70%.

`Cn1cc2c(-c3cc(F)c(CN4Cc5cn(Cc6ccccn6)nc5C4=O)c(F)c3)cccc2n1` [Compound 7, 5-(2,6-difluoro-4-(2-methyl-2H-indazol-4-yl)benzyl)-2-(pyridin-2-ylmethyl)-4,5-dihydropyrrolo[3,4-c]pyrazol-6(2H)-one]: the Emax is 46%.

For the compound `Cc1nn(C)cc1-c1cc(F)c(CN2Cc3ccn(CC4CCCO4)c3C2=O)c(F)c1` (stereo not shown) [Compound 51, 5-(4-(1,3-dimethyl-1H-pyrazol-4-yl)-2,6-difluorobenzyl)-1-((tetrahydrofuran-2-yl)methyl)-4,5-dihydropyrrolo[3,4-b]pyrrol-6(1H)-one], the Emax was found to be 51% and the EC50 came to 3.45 µM.

In the case of `COc1ccc(Cn2ncc3c2C(=O)N(Cc2c(F)cc(-c4cccc5nn(C)cc45)cc2F)C3)cc1` [Compound 6.1, 5-(2,6-difluoro-4-(2-methyl-2H-indazol-4-yl)benzyl)-1-(4-methoxybenzyl)-4,5-dihydropyrrolo[3,4-c]pyrazol-6(1H)-one], the Emax is 45% and the EC50 worked out at 4.37 µM.

For `Cc1nn(C)cc1-c1cc(F)c(CN2Cc3occc3C2=O)c(F)c1` [Compound 59, 5-(4-(1,3-dimethyl-1H-pyrazol-4-yl)-2,6-difluorobenzyl)-5,6-dihydro-4H-furo[2,3-c]pyrrol-4-one], the Emax turned out to be 90%.

Consider `O=C1c2ccsc2CN1Cc1ccc(-c2cscn2)cc1` [Compound 47, 5-(4-(thiazol-4-yl)benzyl)-5,6-dihydro-4H-thieno[2,3-c]pyrrol-4-one], for which the Emax stood at 30%.

With `Cn1cc2c(-c3cc(F)c(CN4Cc5cn(CCN6CCCC6)nc5C4=O)c(F)c3)cccc2n1` [Compound 21, 5-(2,6-difluoro-4-(2-methyl-2H-indazol-4-yl)benzyl)-2-(2-(pyrrolidin-1-yl)ethyl)-4,5-dihydropyrrolo[3,4-c]pyrazol-6(2H)-one], the Emax amounted to 57% and the EC50 was determined as 5.18 µM.

As to `Cn1cc(-c2ccc(CN3Cc4sccc4C3=O)cc2)cn1` [Compound 46, 5-(4-(1-methyl-1H-pyrazol-4-yl)benzyl)-5,6-dihydro-4H-thieno[2,3-c]pyrrol-4-one], the Emax amounted to 50%.

For the compound `Cn1cc2c(-c3cc(F)c(CN4Cc5cn(CCO)nc5C4=O)c(F)c3)cccc2n1` [Compound 25, 5-(2,6-difluoro-4-(2-methyl-2H-indazol-4-yl)benzyl)-2-(2-hydroxyethyl)-4,5-dihydropyrrolo[3,4-c]pyrazol-6(2H)-one], the Emax was 74% and the EC50 turned out to be 9.15 µM.

Consider `Cn1cc2c(-c3cc(F)c(CN4Cc5cnn(CCN6CCCC6)c5C4=O)c(F)c3)cccc2n1` [Compound 20, 5-(2,6-difluoro-4-(2-methyl-2H-indazol-4-yl)benzyl)-1-(2-(pyrrolidin-1-yl)ethyl)-4,5-dihydropyrrolo[3,4-c]pyrazol-6(1H)-one], for which the Emax was found to be 91% and the EC50 was 0.73 µM.

For the compound `Cn1ccc(-c2ccc(CN3Cc4sccc4C3=O)c(F)c2)n1` [Compound 42, 5-(2-fluoro-4-(1-methyl-1H-pyrazol-3-yl)benzyl)-5,6-dihydro-4H-thieno[2,3-c]pyrrol-4-one], the Emax is 46%.

In the case of `Cn1cc2cc(-c3cc(F)c(CN4Cc5ccsc5C4=O)c(F)c3)ccc2n1` [Compound 31, 5-(2,6-difluoro-4-(2-methyl-2H-indazol-5-yl)benzyl)-4,5-dihydro-6H-thieno[2,3-c]pyrrol-6-one], the Emax was 40% and the EC50 amounted to 0.246 µM.
